This passage reports inhibition results from patent publication US7605272B2, “IGF-1R inhibitor” (Kyowa Hakko Kirin Co., Ltd., priority 2005, dated 2009).

The test system of one test is KMS-11. In words: Cytostatic activity on human multiple myeloma cell line KMS-11 (WST-1). The test is classed as cell-based. Conditions: Homo sapiens, 10 μmol/L, 72 hours, read-out: cytostatic rate (%) KMS-11 (10 μmol/L). The method, boiled down: (§1)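 Cells pre-cultured 24 h at 37 °C, 5% CO2, then exposed 72 h to compound at final 1 or 10 μmol/L (0.1% DMSO). WST-1 added for 2 h, absorbance at 450 nm (ref 690 nm). Cytostatic rate = 100 minus relative growth, with DMSO control as 100% and blank as 0%.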

In another test the test system is NCI-H929. Kind of test: Cytostatic activity on human multiple myeloma cell line NCI-H929 (WST-1). The class given is cell-based. Conditions: Homo sapiens, 10 μmol/L, 72 hours, read-out: cytostatic rate (%) H929 (10 μmol/L). The method, boiled down:
as §1

The next test concerns the target T1, IGF-1R (Homo sapiens, UniProt P08069).
T1 construct: purchased Upstate Co. 14-465
In words: IGF-1R inhibitory activity (kinase reaction, time-resolved fluoroimmunoassay). The class given is biochemical. The settings on record: test compound 10 μmol/L. In short, it runs like this:
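Compounds were tested at a single 10 μmol/L concentration. Each was incubated with recombinant IGF-1R (200 μg/L), 10 mmol/L ATP, MgCl2/MnCl2 and Na3VO4 (pH 7.5) on immobilized poly(Glu-Tyr) peptide for 30 min at 24° C. Eu-anti-phosphotyrosine time-resolved fluorescence (340/615 nm) gave relative activity against no-compound and no-enzyme wells, reported as % inhibition.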

Where [1] appears, read: IGF-1R active recombinant enzyme.

Where two headings read alike, the source gives them in different places.

T1 sequence (P08069 959-1367 limits assumed): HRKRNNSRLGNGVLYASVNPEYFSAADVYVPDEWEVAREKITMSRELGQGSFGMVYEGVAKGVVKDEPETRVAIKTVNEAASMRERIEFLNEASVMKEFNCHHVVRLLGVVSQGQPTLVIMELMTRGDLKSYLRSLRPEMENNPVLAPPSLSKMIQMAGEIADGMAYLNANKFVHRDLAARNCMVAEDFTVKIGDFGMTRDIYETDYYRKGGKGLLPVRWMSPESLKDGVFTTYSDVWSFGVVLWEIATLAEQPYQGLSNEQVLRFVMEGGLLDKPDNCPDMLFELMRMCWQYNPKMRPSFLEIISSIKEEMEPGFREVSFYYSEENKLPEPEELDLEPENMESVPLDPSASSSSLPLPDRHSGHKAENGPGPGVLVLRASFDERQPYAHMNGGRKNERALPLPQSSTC

With `COc1cccc(/C=C/c2n[nH]c3ccccc23)c1NC(=O)c1sccc1C` [Compound 94, (E)-N-{2-[2-(1H-indazol-3-yl)vinyl]-6-methoxyphenyl}-3-methylthiophene-2-carboxamide], the inhibition at 10 µM is 143% in the test on KMS-11 (KMS-11, 72 h); 125% with NCI-H929 (NCI-H929, 72 h); 95.4% against IGF-1R.

Turning to `COc1cc(/C=C/c2n[nH]c3ccccc23)c(NC(=O)c2sccc2C)cc1OC` [Compound 95, (E)-N-{2-[2-(1H-indazol-3-yl)vinyl]-4,5-dimethoxyphenyl}-3-methylthiophene-2-carboxamide], the inhibition at 10 µM with KMS-11 (KMS-11, 72 h) worked out at 138%; in the test with NCI-H929 (NCI-H929, 72 h) it was 121%; against IGF-1R, 97.2%.

As to `COc1cc(/C=C/c2n[nH]c3ccccc23)c(NC(=O)c2cccn2C)cc1OC` [Compound 96, (E)-N-{2-[2-(1H-indazol-3-yl)vinyl]-4,5-dimethoxyphenyl}-1-methyl-1H-pyrrole-2-carboxamide], the inhibition at 10 µM was 117% in the test on KMS-11 (KMS-11, 72 h); 117% in the test on NCI-H929 (NCI-H929, 72 h); 100% on IGF-1R.

On to `Cc1ccsc1C(=O)Nc1cc(N(C)C)ccc1/C=C/c1n[nH]c2ccccc12` [Compound 105, (E)-N-{5-dimethylamino-2-[2-(1H-indazol-3-yl)vinyl]phenyl}-3-methylthiophene-2-carboxamide], for which the inhibition at 10 µM with KMS-11 (KMS-11, 72 h) is 120%; in the test on NCI-H929 (NCI-H929, 72 h), 120%; against IGF-1R it was 94.8%.

With `CN(C)c1ccc(/C=C/c2n[nH]c3ccccc23)c(NC(=O)c2cccn2C)c1` [Compound 107, (E)-N-{5-dimethylamino-2-[2-(1H-indazol-3-yl)vinyl]phenyl}-1-methyl-1H-pyrrole-2-carboxamide], the inhibition at 10 µM with KMS-11 (KMS-11, 72 h) was 119%; in the test on NCI-H929 (NCI-H929, 72 h), 119%; against IGF-1R, 92.8%.

In the case of `Cc1ccsc1C(=O)Nc1ccc(O)cc1/C=C/c1n[nH]c2ccccc12` [Compound 110, (E)-N-{4-hydroxy-2-[2-(1H-indazol-3-yl)vinyl]phenyl}-3-methylthiophene-2-carboxamide], the inhibition at 10 µM with KMS-11 (KMS-11, 72 h) came to 118%; in the test on NCI-H929 (NCI-H929, 72 h), 116%; against IGF-1R, 96.3%.

For the compound `Cc1ccsc1C(=O)Nc1cc(C(=O)N2CCC(N)CC2)ccc1/C=C/c1n[nH]c2ccccc12` [Compound 111, (E)-N-{5-(4-aminopiperidin-1-ylcarbonyl)-2-[2-(1H-indazol-3-yl)vinyl]phenyl}-3-methylthiophene-2-carboxamide], the inhibition at 10 µM in the test with KMS-11 (KMS-11, 72 h) came out at 112%; in the test with NCI-H929 (NCI-H929, 72 h), 120%; against IGF-1R, 98.1%.

In the case of `Cc1ccsc1C(=O)Nc1cc(C(=O)N2CCCC2)ccc1/C=C/c1n[nH]c2ccccc12` [Compound 116, (E)-N-{2-[2-(1H-indazol-3-yl)vinyl]-5-(pyrrolidin-1-ylcarbonyl)phenyl}-3-methylthiophene-2-carboxamide], the inhibition at 10 µM in the test on KMS-11 (KMS-11, 72 h) was determined as 114%; with NCI-H929 (NCI-H929, 72 h), 118%; against IGF-1R, 103%.

For `Cc1ccsc1C(=O)Nc1cc(C(=O)N(C)C)ccc1/C=C/c1n[nH]c2ccccc12` [Compound 117, (E)-N-{5-(N,N-dimethylcarbamoyl)-2-[2-(1H-indazol-3-yl)vinyl]phenyl}-3-methylthiophene-2-carboxamide], the inhibition at 10 µM in the test on KMS-11 (KMS-11, 72 h) was determined as 115%; in the test on NCI-H929 (NCI-H929, 72 h), 119%; against IGF-1R, 101%.

Turning to `Cc1ccsc1C(=O)Nc1cc(C(=O)NC2CC2)ccc1/C=C/c1n[nH]c2ccccc12` [Compound 118, (E)-N-{5-(N-cyclopropylcarbamoyl)-2-[2-(1H-indazol-3-yl)vinyl]phenyl}-3-methylthiophene-2-carboxamide], the inhibition at 10 µM in the test on KMS-11 (KMS-11, 72 h) came to 114%; in the test on NCI-H929 (NCI-H929, 72 h), 116%; against IGF-1R, 102%.

On to `Cc1ccsc1C(=O)Nc1cc(C(=O)N2CCC3(CC2)OCCO3)ccc1/C=C/c1n[nH]c2ccccc12` [Compound 119, (E)-N-{5-(1,4-dioxa-8-azaspiro[4,5]decane-8-carbonyl)-2-[2-(1H-indazol-3-yl)vinyl]phenyl}-3-methylthiophene-2-carboxamide], for which the inhibition at 10 µM is 116% with KMS-11 (KMS-11), 117% in the test with NCI-H929 (NCI-H929) and 102% against IGF-1R.

Consider `COC1CCN(C(=O)c2ccc(/C=C/c3n[nH]c4ccccc34)c(NC(=O)c3sccc3C)c2)CC1` [Compound 120, (E)-N-{2-[2-(1H-indazol-3-yl)vinyl]-5-(4-methoxypiperidin-1-ylcarbonyl)phenyl}-3-methylthiophene-2-carboxamide], for which the inhibition at 10 µM in the test with KMS-11 (KMS-11, 72 h) was determined as 114%; in the test with NCI-H929 (NCI-H929, 72 h) it was 116%; against IGF-1R it was 97.5%.

Regarding `Nc1ccc(C(=O)Nc2cc3c(cc2/C=C/c2n[nH]c4ccccc24)OCO3)s1` [Compound 132, (E)-5-amino-N-{6-[2-(1H-indazol-3-yl)vinyl]benzo[1,3]dioxol-5-yl}thiophene-2-carboxamide], the inhibition at 10 µM in the test on KMS-11 (KMS-11, 72 h) was determined as 112%; with NCI-H929 (NCI-H929, 72 h), 108%; against IGF-1R, 98%.

On to `OCCOc1ccccc1/C=C/c1n[nH]c2ccccc12` [Compound 134, (E)-2-{2-[2-(1H-indazol-3-yl)vinyl]phenoxy}ethanol], for which the inhibition at 10 µM in the test with KMS-11 (KMS-11, 72 h) stood at 52.5%; in the test with NCI-H929 (NCI-H929, 72 h) it was 92.8%; at IGF-1R (setting [1]) it was 93.4%.

Consider `N#Cc1ccccc1/C=C/c1n[nH]c2ccccc12` [Compound 136, (E)-2-[2-(1H-indazol-3-yl)vinyl]benzonitrile], for which the inhibition at 10 µM in the test with KMS-11 (KMS-11, 72 h) came out at 38.4%; with NCI-H929 (NCI-H929, 72 h), 87.7%; at IGF-1R (setting [1]), 85.3%.

With `C(=C\c1n[nH]c2ccccc12)/c1ccccc1N1CCOCC1` [Compound 137, (E)-3-[2-{2-(morpholin-4-yl)phenyl]vinyl}-1H-indazole], the inhibition at 10 µM in the test on KMS-11 (KMS-11, 72 h) was found to be 51.2%; with NCI-H929 (NCI-H929, 72 h), 114%; on IGF-1R (setting [1]), 94.3%.

In the case of `O=C(Nc1nccs1)c1ccccc1/C=C/c1n[nH]c2ccccc12` [Compound 138, (E)-2-[2-(1H-indazol-3-yl)vinyl]-N-(thiazol-2-yl)benzamide], the inhibition at 10 µM was 101% in the test with KMS-11 (KMS-11, 72 h); 114% with NCI-H929 (NCI-H929, 72 h); 97.2% at IGF-1R (setting [1]).

As for `C(=C\c1n[nH]c2ccccc12)/c1ccccc1OCCc1ccccc1` [Compound 140, (E)-3-{2-[2-(2-phenylethyloxy)phenyl]vinyl}-1H-indazole], the inhibition at 10 µM with KMS-11 (KMS-11, 72 h) is 58.9%; in the test with NCI-H929 (NCI-H929, 72 h), 104%; on IGF-1R (setting [1]), 92.1%.

For `O=C(NCc1cccs1)c1ccccc1/C=C/c1n[nH]c2ccccc12` [Compound 141, (E)-2-[2-(1H-indazol-3-yl)vinyl]-N-(thiophen-2-ylmethyl)benzamide], the inhibition at 10 µM amounted to 117% in the test with KMS-11 (KMS-11, 72 h); 114% in the test on NCI-H929 (NCI-H929, 72 h); 97.1% at IGF-1R (setting [1]).

For the compound `O=C(Nc1cccnc1)c1ccccc1/C=C/c1n[nH]c2ccccc12` [Compound 142, (E)-2-[2-(1H-indazol-3-yl)vinyl]-N-(pyridin-3-yl)benzamide], the inhibition at 10 µM in the test with KMS-11 (KMS-11, 72 h) was found to be 84.9%; with NCI-H929 (NCI-H929, 72 h) it was 104%; at IGF-1R (setting [1]) it was 92.8%.

For the compound `O=C(Nc1nncs1)c1ccccc1/C=C/c1n[nH]c2ccccc12` [Compound 145, (E)-2-[2-(1H-indazol-3-yl)vinyl]-N-([1,3,4]thiadiazol-2-yl)benzamide], the inhibition at 10 µM in the test with KMS-11 (KMS-11, 72 h) came out at 116%; in the test on NCI-H929 (NCI-H929, 72 h) it was 126%; on IGF-1R (setting [1]) it was 93.4%.
